Molecules are shown by their SMILES. pIC50: −log10 of the molar value. Read-outs that look alike come from different tables or passages of the source.

The target of assay [1] is T1, BRD4 bromo domain 1 [BRD4(1)] (Homo sapiens, UniProt O60885).
T1 construct: N-terminally His6-tagged BRD4(1) (amino acids 67-152); made in house; host or cells: E. coli
Kind of assay: BRD4(1)/acetylated peptide H4 binding assay (TR-FRET). As to conditions: inhibition of interaction between BRD4(1) and acetylated histone H4 peptide. The source says: To assess the BRD4(1) binding strength of the substances described in this application, the ability thereof to inhibit the interaction between BRD4(1) and acetylated histone H4 in a dose-dependent manner was quantified.
For this purpose, a time-resolved fluorescence resonance energy transfer (TR-FRET) assay was used, which measures the binding between N-terminally His6-tagged BRD4(1) (amino acids 67-152) and a synthetic acetylated histone H4 (Ac-H4) peptide with sequence GRGK(Ac)GGK(Ac)GLGK(Ac)GGAK(Ac)RHGSGSK-biotin. The recombinant BRD4(1) protein produced in-house according to Filippakopoulos et al., Cell, 2012, 149:214-231 was expressed in E. coli and purified by means of (Ni-NTA) affinity and (Sephadex G-75) size exclusion chromatography. The Ac-H4 peptide can be purchased, for example, from Biosyntan (Berlin, Germany).
In the assay, typically 11 different concentrations of each substance (0.1 nM, 0.33 nM, 1.1 nM, 3.8 nM, 13 nM, 44 nM, 0.15 μM, 0.51 μM, 1.7 μM, 5.9 μM and 20 μM) were analysed as duplicates on the same microtitre plate. For this purpose, 100-fold concentrated solutions in DMSO were prepared by serial dilutions (1:3.4) of a 2 mM stock solution into a clear, 384-well microtitre plate (Greiner Bio-One, Frickenhausen, Germany). From this, 50 n1 were transferred into a black test plate (Greiner Bio-One, Frickenhausen, Germany). The test was started by the addition of 2 μl of a 2.5-fold concentrated BRD4(1) solution (final concentration typically 10 nM in the 5 μl of reaction volume) in aqueous assay buffer [50 mM HEPES pH 7.5, 50 mM sodium chloride (NaCl), 0.25 mM CHAPS and 0.05% serum albumin (BSA)] to the substances in the test plate. This was followed by a 10-minute incubation step at 22° C. for the pre-equilibration of putative complexes between BRD4(1) and the substances.
The mixture was then incubated in the dark at 22° C. for one hour and then at 4° C. for at least 3 hours and for no longer than overnight. The formation of BRD4(1)/Ac-H4 complexes was determined by the measurement of the resonance energy transfer from the streptavidin-Eu cryptate to the anti-6His-XL665 antibody present in the reaction. For this purpose, the fluorescence emission was measured at 620 nm and 665 nm after excitation at 330-350 nm in a TR-FRET measuring instrument, for example a Rubystar or Pherastar (both from BMG Lab Technologies, Offenburg, Germany) or a Viewlux (Perkin-Elmer). The ratio of the emissions at 665 nm and at 622 nm was taken as an indicator of the amount of BRD4(1)/Ac-H4 complexes formed.
The data (ratios) obtained were normalized, with 0% inhibition corresponding to the mean from the measurements for a set of controls (typically 32 data points) in which all the reagents were present. In these, in place of test substances, 50 nl of DMSO (100%) were used Inhibition of 100% corresponded to the mean from the measurements for a set of controls (typically 32 data points) in which all the reagents except BRD4(1) were present. The IC50 was determined by regression analysis based on a 4-parameter equation (minimum, maximum, IC50, Hill; Y=Max+(Min−Max)/(1+(X/IC50)Hill).

Another assay addresses T2, Plk-1 (Homo sapiens, UniProt P53350).
T2 construct: Recombinant fusion protein consisting of GST and Plk (kinase domain 33-345); MW 36 kDa; GST; made in house; host or cells: insect cells (Hi5)
In words: Plk-1 enzyme assay (indirect HTRF kinase assay). Format: biochemical. How it is done: Recombinant fusion protein consisting of GST and Plk (kinase domain 33-345; MW 36 kDa, conc 0.8 μg/μl) expressed from insect cells (Hi5) and purified by glutathione Sepharose affinity chromatography and subsequent gel filtration (Superdex 75) is used for the kinase assay. Aliquots thereof are frozen in liquid nitrogen and stored at −80° C. and, after thawing, used only once.
The assay used is an indirect HTRF assay which employs the following materials and procedures. The substrate used for the kinase reaction is the biotinylated peptide Btn-Ahx-KKLNRTLSFAEPG-amide x TFA from Biosyntan, Sample No.: 6178.1 (C-terminus in amide form). This is an artificial sequence not derived from any known protein. 50 nl of the test compounds dissolved in 100% dimethyl sulphoxide (DMSO) (final concentrations: 0 μM and concentrations in the range of 0.001-20 μM) are pre-incubated with 2 μl Plk-1 enzyme working solution in working buffer [25 mM MgCl2; 1 mM DTT; 50 mM Hepes pH 7.0; 0.01% NP40; 1× Complete; 0.05% BSA] for 30 min. The kinase reaction is then initiated by addition of 3 μl of substrate solution [adenosine triphosphate (ATP) and 1.4 μM substrate peptide (biotin-Ttds-KKLNRTLSFAEPG-NH2)] in working buffer, and, after 30 min, stopped by addition of a stopper solution (100 mM EDTA, 100 mM Hepes pH 7.5, 800 mM potassium fluoride, 0.12% BSA, 0.4 μM SA-XLent (0.05 μM, from CIS bio international, Marcoule, France), Eu^3+ cryptate-conjugated rabbit anti-mouse IgG (1.5 nM; an anti-mouse IgG antibody labelled with europium cryptate from CIS bio international, Marcoule, France), 1 nM anti-phospho-serine kinase (a phospho-specific antibody from Upstate Biotechnology, Dundee, Scotland), and incubated at 4° C. overnight.
For the test at low ATP concentration, a 1.25 ng/μl Plk-1 working solution and 16.7 μM ATP are used, for the test at high ATP concentration, a 0.039 ng/μl Plk-1 working solution and 16.7 mM ATP are used.
The amount of phosphorylated substrate peptide is then determined by measuring the resonance energy transfer from europium-labelled antibody complex to streptavidine-XLent. To this end, the fluorescence emission at 620 nm and 665 nm is measured following excitation at 350 nm in an HTRF measuring instrument, e.g. Rubystar (BMG Labtechnologies, Offenburg, Germany) or Viewlux (Perkin-Elmer). The ratio of the emissions at 665 nm and at 620 nm is taken as a measure of the amount of phosphorylated substrate peptide. The data are normalized (enzyme reaction without inhibitor=0% inhibition, all other assay components, but no enzyme=100% inhibition), and IC50 values are calculated using a 4 parameter equation (minimum, maximum, IC50, Hill; Y=max+(min−max)/(1+(X/IC50)Hill)).

The test system of a further assay is MOLM-13 cell line. In words: MOLM-13 cell proliferation assay (alamarBlue). The assay is classed as cell-based. To be noted: Homo sapiens; MOLM-13 cells, 96 hours incubation, inhibition of cell proliferation. How it is done:
In accordance with the invention, the substances were tested for their ability to inhibit the proliferation of the MOLM-13 cell linie (Deutsche Sammlung far Mikroorganismen and Zellkulturen [German Collection of Microorganisms and Cell Cultures], ACC 554). Cell viability was determined by means of the alamarBlue® reagent (Invitrogen) in a Victor X3 Multilabel Reader (Perkin Elmer). The excitation wavelength was 530 nm and the emission wavelength […].
The MOLM-13 cells were shown at a density of 4000 cells/well in 100 μl of growth medium on 96-well microtitre plates. After overnight incubation at 37° C., the fluorescence values (CI values) were determined. The plates were then treated with various substance dilutions and incubated at 37° C. for 96 hours. Subsequently, the fluorescence values were determined (CO values). For the data analysis, the CI values were subtracted from the CO values and the results were compared between cells which had been treated with various dilutions of the substance or only with buffer solution. The IC50 values (substance concentration needed for 50% inhibition of cell proliferation) were calculated therefrom.

Setting [2] is: 10 μM ATP (low ATP concentration), read-out: IC50 [Plk-1] (10 μM ATP).
Where [3] appears, read: 10 mM ATP (high ATP concentration), read-out: IC50 [Plk-1] (10 mM ATP).

T2 sequence (P53350 33-345): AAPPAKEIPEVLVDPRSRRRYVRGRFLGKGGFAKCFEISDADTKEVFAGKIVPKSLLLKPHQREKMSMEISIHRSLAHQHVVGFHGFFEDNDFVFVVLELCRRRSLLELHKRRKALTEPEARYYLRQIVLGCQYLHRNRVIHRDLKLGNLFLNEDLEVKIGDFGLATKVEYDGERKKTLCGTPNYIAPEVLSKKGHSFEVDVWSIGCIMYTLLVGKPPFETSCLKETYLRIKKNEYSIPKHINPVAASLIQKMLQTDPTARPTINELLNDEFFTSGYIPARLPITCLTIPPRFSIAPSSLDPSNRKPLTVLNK

Consider `COc1cc(C(=O)NC2CC2)cnc1Nc1cc2c(cn1)N(C)C(=O)C(C)N2C1CCCC1` (stereo not shown) [Example 1, 6-{[1-Cyclopentyl-2,4-dimethyl-3-oxo-1,2,3,4-tetrahydropyrido[3,4-b]pyrazin-7-yl]amino}-N-cyclopropyl-5-methoxypyridine-3-carboxamide], for which the pIC50 in assay [1] is 6.69; on Plk-1 (setting [2]) it was 7.82; in the assay on MOLM-13 cell line it was 6.68.

In the case of `COc1cc(C(=O)NC2CC2)cnc1Nc1cc2c(cn1)N(C)C(=O)[C@@H](C)N2C1CCCC1` [Example 2, 6-{[(2R)-1-Cyclopentyl-2,4-dimethyl-3-oxo-1,2,3,4-tetrahydropyrido[3,4-b]pyrazin-7-yl]amino}-N-cyclopropyl-5-methoxypyridine-3-carboxamide], the pIC50 is 6.90 in assay [1], 7.77 on Plk-1 (setting [2]) and 7.03 in the assay with MOLM-13 cell line.

Turning to `CCc1cc(C(=O)NC2CC2)cnc1Nc1cc2c(cn1)N(C)C(=O)[C@@H](CC)N2C1CCCC1` [Example 3, 6-{[(2R)-1-Cyclopentyl-2-ethyl-4-methyl-3-oxo-1,2,3,4-tetrahydropyrido[3,4-b]pyrazin-7-yl]amino}-N-cyclopropyl-5-ethylpyridine-3-carboxamide], the pIC50 is 6.70 in assay [1], 8.10 on Plk-1 (setting [2]), 7.77 on Plk-1 (setting [3]) and 7.21 with MOLM-13 cell line.

As to `CCC1C(=O)N(C)c2cnc(Nc3ncc(C(=O)NC4CC4)cc3OC)cc2N1C1CCCC1` (stereo not shown) [Example 4, 6-[(1-Cyclopentyl-2-ethyl-1,2,3,4-tetrahydro-4-methyl-3-oxopyrido[3,4-b]pyrazin-7-yl)amino]-N-cyclopropyl-5-methoxy-3-pyridinecarboxamide], the pIC50 in assay [1] is 6.35; at Plk-1 (setting [3]), 7.51; in the assay on MOLM-13 cell line, 7.17.

Regarding `CC[C@@H]1C(=O)N(C)c2cnc(Nc3ncc(C(=O)NC4CC4)cc3OC)cc2N1C1CCCC1` [Example 5, 6-[[(2R)-1-Cyclopentyl-2-ethyl-1,2,3,4-tetrahydro-4-methyl-3-oxopyrido[3,4-b]pyrazin-7-yl)amino]-N-cyclopropyl-5-methoxy-3-pyridinecarboxamide], the pIC50 in assay [1] is 6.65; on Plk-1 (setting [2]) it was 8.15; at Plk-1 (setting [3]), 7.68; in the assay with MOLM-13 cell line, 7.54.

As to `COc1cc(C(=O)NC2CCN(C)CC2)cnc1Nc1cc2c(cn1)N(C)C(=O)C(C)N2C1CCCC1` (stereo not shown) [Example 6, 6-[(1-Cyclopentyl-2,4-dimethyl-3-oxo-1,2,3,4-tetrahydropyrido[3,4-b]pyrazin-7-yl)amino]-5-methoxy-N-(1-methylpiperidin-4-yl)pyridine-3-carboxamide], the pIC50 in assay [1] is 6.61; at Plk-1 (setting [3]) it was 7.72; with MOLM-13 cell line, 6.94.

For the compound `CC[C@@H]1C(=O)N(C)c2cnc(Nc3ncc(C(=O)NCC(F)(F)F)cc3OC)cc2N1C1CCCC1` [Example 7, 6-[[(2R)-1-Cyclopentyl-2-ethyl-1,2,3,4-tetrahydro-4-methyl-3-oxopyrido[3,4-b]pyrazin-7-yl]amino]-5-methoxy-N-(2,2,2-trifluoroethyl)-3-pyridinecarboxamide], the pIC50 was 6.56 in assay [1], 7.96 on Plk-1 (setting [2]), 7.52 at Plk-1 (setting [3]) and 7.10 in the assay on MOLM-13 cell line.

As to `CC[C@@H]1C(=O)N(C)c2cnc(Nc3ncc(C(=O)NCCOC)cc3OC)cc2N1C1CCCC1` [Example 8, 6-[[(2R)-1-Cyclopentyl-2-ethyl-1,2,3,4-tetrahydro-4-methyl-3-oxopyrido[3,4-b]pyrazin-7-yl]amino]-5-methoxy-N-(2-methoxyethyl)-3-pyridinecarboxamide], the pIC50 in assay [1] is 6.48; at Plk-1 (setting [2]) it was 8.05; on Plk-1 (setting [3]) it was 7.66; with MOLM-13 cell line, 7.14.

With `CCc1cc(C(=O)N[C@@H]2CCCCNC2=O)cnc1Nc1cc2c(cn1)N(C)C(=O)[C@@H](CC)N2C1CCCC1` [Example 9, 6-{[(2R)-1-Cyclopentyl-2-ethyl-4-methyl-3-oxo-1,2,3,4-tetrahydropyrido[3,4-b]pyrazin-7-yl]amino}-5-ethyl-N-[(3R)-2-oxoazepan-3-yl]pyridine-3-carboxamide], the pIC50 in assay [1] is 6.46; at Plk-1 (setting [3]), 7.77; in the assay on MOLM-13 cell line it was 7.12.

Regarding `CC[C@@H]1C(=O)N(C)c2cnc(Nc3ncc(C(=O)NC4CCOCC4)cc3OC)cc2N1C1CCCC1` [Example 10, 6-[[(2R)-1-Cyclopentyl-2-ethyl-1,2,3,4-tetrahydro-4-methyl-3-oxopyrido[3,4-b]pyrazin-7-yl]amino]-5-methoxy-N-(tetrahydro-2H-pyran-4-yl)-3-pyridinecarboxamide], the pIC50 in assay [1] is 6.42; on Plk-1 (setting [3]), 7.51; with MOLM-13 cell line, 7.37.
